Experimental findings from PubChem BioAssay (NCI) are described below.

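Following 48 hours of exposure in 96-well plates, responses at five concentrations were used to interpolate endpoints linearly. GI50 marks 50% less growth. TGI is the concentration that stops growth completely.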

What all share (assay): DTP human tumour cell line panel, 48 h
Assay [1] concerns COLO 205 colon.
For assay [2], the system named is HCT-15 colon.
Assay [3] concerns NCI-H460 lung.
Assay [4] deals with SK-OV-3 ovarian.
Assay [5] relates to PC-3 prostate.
For assay [6], the system named is TK-10 renal.
The test system of assay [7] is 786-0 renal.
For assay [8], the system named is SK-MEL-5 melanoma.
Assay [9] has as its system KM12 colon.
Assay [10] deals with HT29 colon.

One may read the TGI as the concentration at which net growth stops. A high value points to lower sensitivity of the cells. For the compound `C[N+](C)([O-])CCCNc1c2ccccc2nc2cccc([N+](=O)[O-])c12`, the TGI was 0.322 µM in assay [1]; 4.93 µM in assay [2]; 0.707 µM in assay [3]; more than 29.4 µM in assay [4]; 1.26 µM in assay [5]; 8.19 µM in [6]. For the same compound, the TGI in [7] is 0.872 µM; in [8], 0.327 µM; in assay [9] it was 4.36 µM; in assay [10], 0.606 µM.

By GI50 is commonly meant the concentration that inhibits growth by half. Consider `O=CN1N=C(c2ccc(Nc3ccnc4cc(Cl)ccc34)cc2)CC1c1ccccc1` (centres undefined), for which the GI50 in [1] was 2.21 µM; in [2], 2.54 µM; in assay [3], 3.96 µM; in assay [4], 11.3 µM; in assay [5] it was 4.76 µM; in [6] it was 9.51 µM. For the same compound, the GI50 in [7] is 3.36 µM; in assay [8], 1.38 µM; in assay [9], 3.41 µM; in assay [10], 3.21 µM. Also, the TGI in assay [1] is 6.15 µM; in assay [2], 14.4 µM; in [3] it was more than 100 µM; in [4] it was more than 100 µM; in [5], more than 100 µM; in [6], 38.5 µM. The TGI in [7] is 12.2 µM; in assay [8], 3.77 µM; in [9], 56.9 µM; in assay [10], 11.1 µM.

In the case of `O=c1[nH]cnc2c1nnn2C1OC(CO)C(O)C1O` (centres undefined), the GI50 in assay [1] is 1.44 µM; in assay [2] it was 1.21 µM; in [3] it was 1.11 µM; in assay [4], 0.375 µM; in assay [5], 2.43 µM; in [6], 1.5 µM. Also, the GI50 in assay [7] is 2.58 µM; in assay [8], 5.59 µM; in [9], 3.89 µM; in assay [10], 2.15 µM. The TGI in [1] was 9.94 µM; in assay [2] it was more than 100 µM; in assay [3] it was more than 100 µM; in assay [4], more than 100 µM; in [5], more than 100 µM; in [6], more than 30.2 µM. Besides, the concentration for total growth inhibition (TGI) in assay [7] is more than 100 µM; in assay [8] it was 30.3 µM; in [9], more than 100 µM; in [10] it was more than 100 µM.

On to `Cc1nc2cncc(C#Cc3cncc(C(=O)Nc4ccc(CN5CCN(C)CC5)c(C(F)(F)F)c4)c3)c2nc1C`, for which the 50% growth inhibitory concentration (GI50) in assay [1] is 0.196 µM; in assay [2], 0.286 µM; in assay [3], 0.354 µM; in assay [4] it was 0.251 µM; in assay [5] it was 1.51 µM; in assay [6], 0.727 µM. In addition, the GI50 in [7] is 0.925 µM; in assay [8] it was 0.839 µM; in [9], 0.005 µM; in assay [10] it was 0.205 µM. Also, the TGI in assay [1] stood at 5.96 µM; in assay [2], 5.92 µM; in [3] it was 6.34 µM; in [4], 5.62 µM; in assay [5], 12.2 µM; in [6], 7 µM. The TGI turned out to be 7.4 µM in [7], 2.35 µM in assay [8], 2.98 µM in assay [9] and 7.56 µM in [10].

On to `CCOC(=O)c1cc2c(n1Cc1cc(OC)cc(OC)c1)-c1oncc1CCC2`, for which the 50% growth inhibitory concentration (GI50) was 0.0647 µM in assay [1]; 0.0678 µM in assay [2]; 0.071 µM in assay [3]; 0.108 µM in assay [4]; 0.0644 µM in [5]; 0.104 µM in [7]. Besides, the concentration for 50% growth inhibition (GI50) was 0.0528 µM in [8], 0.0472 µM in [9] and 0.0499 µM in assay [10]. Besides, the TGI is 6.15 µM in [1]; more than 100 µM in [2]; more than 100 µM in assay [3]; more than 100 µM in [4]; more than 100 µM in assay [5]; more than 100 µM in assay [6]. Further, the TGI in assay [7] is more than 100 µM; in assay [8], 6.22 µM; in [9] it was more than 20.5 µM; in [10], 20.1 µM.

Turning to `O=Nc1c(-c2cccc([N+](=O)[O-])c2)nc2cnccn12`, the TGI in assay [1] was 66.7 µM; in assay [2], 30.7 µM; in assay [3], more than 100 µM; in assay [4], more than 100 µM; in [5], 62.6 µM; in assay [6], 26.3 µM. Further, the TGI was 37.4 µM in [7], more than 100 µM in assay [8], 95.4 µM in assay [9] and 40.1 µM in assay [10].

Regarding `O=[N+]([O-])c1cc(O)c(O)cc1-c1cn2ccsc2n1`, the GI50 is 75.2 µM in assay [1]; 38.5 µM in assay [2]; 46.9 µM in assay [3]; more than 100 µM in assay [4]; 63.4 µM in assay [5]; 66.5 µM in [6]. In addition, the GI50 in assay [7] was 31 µM; in assay [8] it was 16.3 µM; in [9] it was 40.4 µM; in assay [10], 28.7 µM. The TGI in [1], in assay [2], in assay [3], in assay [4], in [5] and in [6] was more than 100 µM throughout. For the same compound, the concentration for total growth inhibition (TGI) in assay [7] was more than 100 µM; in assay [8] it was 54.8 µM; in [9], more than 100 µM; in [10], more than 100 µM.

Regarding `CCc1ccc(-c2ccc(=O)n(-c3ccc(S(N)(=O)=O)cc3)n2)cc1`, the GI50 is 1.95 µM in [1]; 0.746 µM in assay [2]; 0.97 µM in [3]; 4.44 µM in [4]; 1.35 µM in [5]; 13.2 µM in assay [6]. In addition, the GI50 in assay [7] was 11.7 µM; in assay [8], 0.659 µM; in assay [9] it was 0.68 µM; in [10] it was 0.484 µM. Further, the TGI in assay [1] is more than 55.6 µM; in [2], more than 100 µM; in assay [3], more than 21.2 µM; in assay [4], more than 100 µM; in assay [5], more than 100 µM; in [6], 38.3 µM. Besides, the TGI in [7] is more than 79.8 µM; in [8] it was more than 27.6 µM; in [9] it was more than 100 µM; in assay [10] it was more than 100 µM.
